Where a name gives a salt, the structure may show the parent alone.
Each compound was assayed against T1, human FGFR1 (Homo sapiens, UniProt P11362) (assay: 33P isotope-labeled kinase activity test, FGFR1). Details: ATP 5 μM.
T1 construct: purchased Invitrogen PV3146
Format: biochemical
Experimental: (§1) The inhibitory activities of the tested compounds on human FGFR1, FGFR4, and c-Met were evaluated by the IC50 values measured using ^33P isotope-labeled kinase activity test (Reaction Biology Corp).
(§2) Buffer condition: 20 mM Hepes (pH 7.5), 10 mM MgCl2, 1 mM EGTA, 0.02% Brij35, 0.02 mg/mL BSA, 0.1 mM Na3VO4, 2 mM DTT, 1% DMSO.
Test procedure: The test compounds were dissolved in DMSO at room temperature and formulated to be 10 mM solutions for later use. The substrates were dissolved in freshly prepared buffer, and kinases to be tested were added and mixed well. The test compounds dissolved in DMSO were added to the above mixed reaction solutions by acoustic technique (Echo 550). […] After incubation for 15 min, ^33P-ATP (activity 0.01 μCi/μL, corresponding concentrations are listed in Table 1) was added to start the reaction. Supplier item number, batch number, as well as the concentration information in the reaction solution of FGFR1, FGFR4, c-Met and substrates thereof are listed in Table 1. […] The kinase activity data are expressed by comparison between the kinase activity in the test compound group and the kinase activity in the blank group (containing DMSO only). IC50 values were obtained by curve fitting with Prism4 software (GraphPad).

T1 sequence (P11362 22-822): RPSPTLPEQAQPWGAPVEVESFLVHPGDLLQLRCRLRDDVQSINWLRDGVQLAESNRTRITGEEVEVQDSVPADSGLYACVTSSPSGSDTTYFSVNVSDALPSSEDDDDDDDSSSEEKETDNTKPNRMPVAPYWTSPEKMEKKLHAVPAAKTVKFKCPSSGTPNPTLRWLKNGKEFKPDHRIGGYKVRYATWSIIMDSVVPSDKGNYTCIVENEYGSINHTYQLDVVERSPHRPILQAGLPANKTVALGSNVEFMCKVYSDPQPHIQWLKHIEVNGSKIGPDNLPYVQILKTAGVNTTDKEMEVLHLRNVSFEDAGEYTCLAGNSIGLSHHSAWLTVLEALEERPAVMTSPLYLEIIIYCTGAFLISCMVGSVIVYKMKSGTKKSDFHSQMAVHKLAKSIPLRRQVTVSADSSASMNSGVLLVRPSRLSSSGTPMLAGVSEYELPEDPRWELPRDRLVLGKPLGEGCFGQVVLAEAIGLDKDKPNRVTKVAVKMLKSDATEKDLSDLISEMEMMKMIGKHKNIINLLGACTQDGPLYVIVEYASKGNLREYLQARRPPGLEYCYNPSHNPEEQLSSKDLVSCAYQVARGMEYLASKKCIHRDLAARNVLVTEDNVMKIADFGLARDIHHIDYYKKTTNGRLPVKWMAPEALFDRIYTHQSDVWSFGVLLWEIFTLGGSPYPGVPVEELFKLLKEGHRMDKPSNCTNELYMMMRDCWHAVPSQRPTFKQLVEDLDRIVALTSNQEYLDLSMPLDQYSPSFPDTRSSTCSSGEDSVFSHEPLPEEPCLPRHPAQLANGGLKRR

Row | SMILES | IC50 [nM]
1 | COc1cc(OC)c(F)c(Cc2c[nH]c3ncc(-c4ccc(C5(C#N)CCNCC5)cc4)cc23)c1F [Hydrochloride of embodiment 57] | 1.1
2 | COc1cc(OC)c(F)c(Cc2c[nH]c3ncc(-c4cnn(S(C)(=O)=O)c4)cc23)c1F [Trifluoroacetate salt of embodiment 30] | 2.1
3 | CCN1CCC(n2cc(-c3cnc4[nH]cc(Cc5c(F)ccc(OC)c5F)c4c3)c(C)n2)CC1 [Trifluoroacetate salt of embodiment 39] | 29
4 | CCN(CC)CCn1cc(-c2cnc3[nH]cc(Cc4c(F)c(OC)cc(OC)c4F)c3c2)cn1 [Hydrochloride of embodiment 69] | 0.6
5 | CCN1CCC(n2cc(-c3cnc4[nH]cc(Cc5c(F)c(OC)cc(OC)c5F)c4c3)c(C#N)n2)CC1 [Hydrochloride of embodiment 42] | 1.4
6 | CCN1CCC2(CC1)C(=O)Nc1cc(-c3cnc4[nH]cc(Cc5c(F)c(OC)cc(OC)c5F)c4c3)ccc12 [Trifluoroacetate salt of embodiment 55] | 2.2
7 | CCN1CC(n2cc(-c3cnc4[nH]cc(Cc5c(F)c(OC)cc(OC)c5F)c4c3)cn2)C1 [Trifluoroacetate salt of embodiment 25] | 2.1
8 | COc1cc(OC)c(F)c(Cc2c[nH]c3ncc(-c4cnn(CCO)c4)nc23)c1F [Trifluoroacetate salt of embodiment 8] | 0.43
9 | COc1cc(OC)c(F)c(Cc2c[nH]c3ncc(-c4cncc(C5(C#N)CCNCC5)c4)cc23)c1F [Trifluoroacetate salt of embodiment 61] | 0.7
10 | COc1cc(OC)c(F)c(Cc2c[nH]c3ncc(-c4cnn(C5CN(S(C)(=O)=O)C5)c4)cc23)c1F [Trifluoroacetate salt of embodiment 23] | 4.85
11 | COc1cc(OC)c(F)c(Cc2c[nH]c3ncc(-c4cnc5c(c4)CNCC5)cc23)c1F [Trifluoroacetate salt of embodiment 52] | 0.06
12 | COCCNCCn1cc(-c2cnc3[nH]cc(Cc4c(F)c(OC)cc(OC)c4F)c3c2)cn1 [Hydrochloride of embodiment 70] | 0.5
13 | CCN1Cc2cc(-c3cnc4[nH]cc(Cc5c(F)c(OC)cc(OC)c5F)c4c3)cnc2C1 [Trifluoroacetate salt of embodiment 51] | 0.27
14 | COc1cc(OC)c(F)c(Cc2c[nH]c3ncc(-c4cnn(CC(C)(C)O)c4)cc23)c1F [Trifluoroacetate salt of embodiment 66] | 0.5
15 | CCN1CCC(n2cc(-c3cnc4[nH]cc(Cc5c(F)c(OC)cc(OC)c5F)c4n3)cn2)CC1 [Trifluoroacetate salt of embodiment 6] | 0.04
16 | COc1cc(OC)c(F)c(Cc2c[nH]c3ncc(-c4cnn(CC5CNC5)c4)cc23)c1F [Trifluoroacetate salt of embodiment 29] | 1.9

What follows are compounds tested against T2, human FGFR4 (Homo sapiens, UniProt P22455) (assay: 33P isotope-labeled kinase activity test, FGFR4). Details: ATP 100 μM.
T2 construct: purchased Invitrogen P3054
Format: biochemical
Experimental: as §1, §2
(§3) Test procedure: The test compounds were dissolved in DMSO at room temperature and formulated to be 10 mM solutions for later use. The substrates were dissolved in freshly prepared buffer, and kinases to be tested were added and mixed well. The test compounds dissolved in DMSO were added to the above mixed reaction solutions by acoustic technique (Echo 550). The concentration of the compound in reaction solution was 1 μM, […], 3.91 nM, 0.977 nM, 0.244 nM, 0.061 nM, 0.0153 nM, 0.00381 nM or 10 μM, 2.50 μM, 0.62 μM, 0.156 μM, 39.1 nM, 9.8 nM, 2.4 nM, 0.61 nM, 0.15 nM, 0.038 nM. After incubation for 15 min, ^33P-ATP (activity 0.01 μCi/μL, corresponding concentrations are listed in Table 1) was added to start the reaction. Supplier item number, batch number, as well as the concentration information in the reaction solution of FGFR1, FGFR4, c-Met and substrates thereof are listed in Table 1. […] The kinase activity data are expressed by comparison between the kinase activity in the test compound group and the kinase activity in the blank group (containing DMSO only). IC50 values were obtained by curve fitting with Prism4 software (GraphPad).

T2 sequence (P22455 22-802): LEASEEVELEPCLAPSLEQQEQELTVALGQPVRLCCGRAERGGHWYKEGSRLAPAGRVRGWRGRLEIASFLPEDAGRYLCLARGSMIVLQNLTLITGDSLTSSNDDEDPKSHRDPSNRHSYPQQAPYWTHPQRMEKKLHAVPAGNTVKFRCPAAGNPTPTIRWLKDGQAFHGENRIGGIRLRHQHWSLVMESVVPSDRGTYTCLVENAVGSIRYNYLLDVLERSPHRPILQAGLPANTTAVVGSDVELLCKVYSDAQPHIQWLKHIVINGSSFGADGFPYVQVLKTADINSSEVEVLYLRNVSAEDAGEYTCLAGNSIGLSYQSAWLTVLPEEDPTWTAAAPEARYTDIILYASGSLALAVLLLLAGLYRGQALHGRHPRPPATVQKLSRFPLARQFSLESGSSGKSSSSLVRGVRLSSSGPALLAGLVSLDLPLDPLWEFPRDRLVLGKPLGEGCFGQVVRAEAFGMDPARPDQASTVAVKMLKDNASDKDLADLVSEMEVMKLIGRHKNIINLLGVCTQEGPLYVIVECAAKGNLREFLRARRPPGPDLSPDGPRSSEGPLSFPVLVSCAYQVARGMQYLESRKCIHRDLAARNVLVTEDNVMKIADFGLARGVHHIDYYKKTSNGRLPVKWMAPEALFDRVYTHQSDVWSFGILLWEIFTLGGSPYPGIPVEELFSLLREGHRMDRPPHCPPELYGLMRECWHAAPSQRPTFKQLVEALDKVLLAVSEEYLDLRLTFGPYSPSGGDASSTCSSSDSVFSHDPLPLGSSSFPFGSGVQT

Row | SMILES | IC50 [nM]
17 | COc1cc(OC)c(F)c(Cc2c[nH]c3ncc(-c4ccc(C5(C#N)CCNCC5)cc4)cc23)c1F [Hydrochloride of embodiment 57] | 21.4
18 | COc1cc(OC)c(F)c(Cc2c[nH]c3ncc(-c4cnn(S(C)(=O)=O)c4)cc23)c1F [Trifluoroacetate salt of embodiment 30] | 28.2
19 | CCN1CCC(n2cc(-c3cnc4[nH]cc(Cc5c(F)ccc(OC)c5F)c4c3)c(C)n2)CC1 [Trifluoroacetate salt of embodiment 39] | 752
20 | CCN(CC)CCn1cc(-c2cnc3[nH]cc(Cc4c(F)c(OC)cc(OC)c4F)c3c2)cn1 [Hydrochloride of embodiment 69] | 8.4
21 | CCN1CCC(n2cc(-c3cnc4[nH]cc(Cc5c(F)c(OC)cc(OC)c5F)c4c3)c(C#N)n2)CC1 [Hydrochloride of embodiment 42] | 10.2
22 | CCN1CCC2(CC1)C(=O)Nc1cc(-c3cnc4[nH]cc(Cc5c(F)c(OC)cc(OC)c5F)c4c3)ccc12 [Trifluoroacetate salt of embodiment 55] | 44.9
23 | CCN1CC(n2cc(-c3cnc4[nH]cc(Cc5c(F)c(OC)cc(OC)c5F)c4c3)cn2)C1 [Trifluoroacetate salt of embodiment 25] | 31.9
24 | COc1cc(OC)c(F)c(Cc2c[nH]c3ncc(-c4cnn(CCO)c4)nc23)c1F [Trifluoroacetate salt of embodiment 8] | 20.7
25 | COc1cc(OC)c(F)c(Cc2c[nH]c3ncc(-c4cncc(C5(C#N)CCNCC5)c4)cc23)c1F [Trifluoroacetate salt of embodiment 61] | 4.5
26 | COc1cc(OC)c(F)c(Cc2c[nH]c3ncc(-c4cnn(C5CN(S(C)(=O)=O)C5)c4)cc23)c1F [Trifluoroacetate salt of embodiment 23] | 43.9
27 | COc1cc(OC)c(F)c(Cc2c[nH]c3ncc(-c4cnc5c(c4)CNCC5)cc23)c1F [Trifluoroacetate salt of embodiment 52] | 13.7
28 | COCCNCCn1cc(-c2cnc3[nH]cc(Cc4c(F)c(OC)cc(OC)c4F)c3c2)cn1 [Hydrochloride of embodiment 70] | 5
29 | CCN1Cc2cc(-c3cnc4[nH]cc(Cc5c(F)c(OC)cc(OC)c5F)c4c3)cnc2C1 [Trifluoroacetate salt of embodiment 51] | 3
30 | COc1cc(OC)c(F)c(Cc2c[nH]c3ncc(-c4cnn(CC(C)(C)O)c4)cc23)c1F [Trifluoroacetate salt of embodiment 66] | 9
31 | CCN1CCC(n2cc(-c3cnc4[nH]cc(Cc5c(F)c(OC)cc(OC)c5F)c4n3)cn2)CC1 [Trifluoroacetate salt of embodiment 6] | 15.2
32 | COc1cc(OC)c(F)c(Cc2c[nH]c3ncc(-c4cnn(CC5CNC5)c4)cc23)c1F [Trifluoroacetate salt of embodiment 29] | 24.6

The compounds below were run against T3, human c-Met (Homo sapiens, UniProt P08581) (assay: 33P isotope-labeled kinase activity test, c-Met). Details: ATP 10 μM.
T3 construct: purchased Invitrogen PV3143
Format: biochemical
Experimental: as §1, §2, §3

T3 sequence (P08581 25-1390): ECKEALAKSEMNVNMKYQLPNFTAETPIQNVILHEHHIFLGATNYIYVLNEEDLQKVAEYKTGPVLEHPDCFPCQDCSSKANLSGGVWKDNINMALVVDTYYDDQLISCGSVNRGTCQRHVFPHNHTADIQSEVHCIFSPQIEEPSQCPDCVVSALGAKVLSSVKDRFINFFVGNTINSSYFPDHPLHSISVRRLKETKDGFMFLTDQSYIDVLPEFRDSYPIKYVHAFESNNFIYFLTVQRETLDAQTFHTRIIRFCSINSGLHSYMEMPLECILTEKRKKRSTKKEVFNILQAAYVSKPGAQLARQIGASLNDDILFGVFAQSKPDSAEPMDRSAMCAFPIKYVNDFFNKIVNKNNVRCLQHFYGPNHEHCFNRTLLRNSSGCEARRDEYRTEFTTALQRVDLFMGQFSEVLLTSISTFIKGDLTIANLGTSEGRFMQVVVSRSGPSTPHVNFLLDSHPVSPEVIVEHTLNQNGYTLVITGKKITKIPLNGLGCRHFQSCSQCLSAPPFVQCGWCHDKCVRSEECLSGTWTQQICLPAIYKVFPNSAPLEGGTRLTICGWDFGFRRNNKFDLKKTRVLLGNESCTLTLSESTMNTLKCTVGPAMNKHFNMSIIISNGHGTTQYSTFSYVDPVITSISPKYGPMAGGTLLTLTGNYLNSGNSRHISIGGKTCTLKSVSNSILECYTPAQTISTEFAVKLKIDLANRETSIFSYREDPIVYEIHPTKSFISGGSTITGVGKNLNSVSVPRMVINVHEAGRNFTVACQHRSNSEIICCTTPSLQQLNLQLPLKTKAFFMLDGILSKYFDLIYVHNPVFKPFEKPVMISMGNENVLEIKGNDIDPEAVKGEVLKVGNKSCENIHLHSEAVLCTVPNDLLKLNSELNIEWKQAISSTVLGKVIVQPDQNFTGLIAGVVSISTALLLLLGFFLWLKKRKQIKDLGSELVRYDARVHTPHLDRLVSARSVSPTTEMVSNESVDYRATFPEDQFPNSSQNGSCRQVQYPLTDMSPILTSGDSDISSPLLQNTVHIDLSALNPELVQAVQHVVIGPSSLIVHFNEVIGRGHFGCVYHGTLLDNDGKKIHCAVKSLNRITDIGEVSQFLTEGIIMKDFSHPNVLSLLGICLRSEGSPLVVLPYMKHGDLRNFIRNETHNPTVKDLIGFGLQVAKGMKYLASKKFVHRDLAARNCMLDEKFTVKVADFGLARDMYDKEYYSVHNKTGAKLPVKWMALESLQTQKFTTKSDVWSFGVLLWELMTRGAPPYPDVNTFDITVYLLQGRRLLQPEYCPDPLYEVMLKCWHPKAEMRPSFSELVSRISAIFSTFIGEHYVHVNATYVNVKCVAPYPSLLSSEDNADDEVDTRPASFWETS

Row | SMILES | IC50 [nM]
33 | COc1cc(OC)c(F)c(Cc2c[nH]c3ncc(-c4ccc(C5(C#N)CCNCC5)cc4)cc23)c1F [Hydrochloride of embodiment 57] | 49.4
34 | COc1cc(OC)c(F)c(Cc2c[nH]c3ncc(-c4cnn(S(C)(=O)=O)c4)cc23)c1F [Trifluoroacetate salt of embodiment 30] | 169
35 | CCN1CCC(n2cc(-c3cnc4[nH]cc(Cc5c(F)ccc(OC)c5F)c4c3)c(C)n2)CC1 [Trifluoroacetate salt of embodiment 39] | 24.5
36 | CCN(CC)CCn1cc(-c2cnc3[nH]cc(Cc4c(F)c(OC)cc(OC)c4F)c3c2)cn1 [Hydrochloride of embodiment 69] | 35.3
37 | CCN1CCC(n2cc(-c3cnc4[nH]cc(Cc5c(F)c(OC)cc(OC)c5F)c4c3)c(C#N)n2)CC1 [Hydrochloride of embodiment 42] | 7.1
38 | CCN1CCC2(CC1)C(=O)Nc1cc(-c3cnc4[nH]cc(Cc5c(F)c(OC)cc(OC)c5F)c4c3)ccc12 [Trifluoroacetate salt of embodiment 55] | 22.8
39 | CCN1CC(n2cc(-c3cnc4[nH]cc(Cc5c(F)c(OC)cc(OC)c5F)c4c3)cn2)C1 [Trifluoroacetate salt of embodiment 25] | 16.9
40 | COc1cc(OC)c(F)c(Cc2c[nH]c3ncc(-c4cnn(CCO)c4)nc23)c1F [Trifluoroacetate salt of embodiment 8] | 496
41 | COc1cc(OC)c(F)c(Cc2c[nH]c3ncc(-c4cncc(C5(C#N)CCNCC5)c4)cc23)c1F [Trifluoroacetate salt of embodiment 61] | 243
42 | COc1cc(OC)c(F)c(Cc2c[nH]c3ncc(-c4cnn(C5CN(S(C)(=O)=O)C5)c4)cc23)c1F [Trifluoroacetate salt of embodiment 23] | 21
43 | COc1cc(OC)c(F)c(Cc2c[nH]c3ncc(-c4cnc5c(c4)CNCC5)cc23)c1F [Trifluoroacetate salt of embodiment 52] | 137
44 | COCCNCCn1cc(-c2cnc3[nH]cc(Cc4c(F)c(OC)cc(OC)c4F)c3c2)cn1 [Hydrochloride of embodiment 70] | 31.4
45 | CCN1Cc2cc(-c3cnc4[nH]cc(Cc5c(F)c(OC)cc(OC)c5F)c4c3)cnc2C1 [Trifluoroacetate salt of embodiment 51] | 84.1
46 | COc1cc(OC)c(F)c(Cc2c[nH]c3ncc(-c4cnn(CC(C)(C)O)c4)cc23)c1F [Trifluoroacetate salt of embodiment 66] | 28
47 | CCN1CCC(n2cc(-c3cnc4[nH]cc(Cc5c(F)c(OC)cc(OC)c5F)c4n3)cn2)CC1 [Trifluoroacetate salt of embodiment 6] | 74.3
48 | COc1cc(OC)c(F)c(Cc2c[nH]c3ncc(-c4cnn(CC5CNC5)c4)cc23)c1F [Trifluoroacetate salt of embodiment 29] | 35.6
